Consider 8 molecules from publication PMC8187775, “Metabolism and Tissue Distribution of Chelerythrine and Effects of Macleaya Cordata Extracts on Liver NAD(P)H Quinone Oxidoreductase” (Frontiers in Veterinary Science, 2021).

Data set [1] relates to rat liver cytosol. Kind of data set: Effect of inhibitors on chelerythrine iminium bond reduction to DHCHE by rat liver cytosol. Format: in vitro ADME. To be noted: 100 μmol/L inhibitor, 0.25 mg/mL cytosol protein, 2 mM NADPH, 10 μg/mL chelerythrine, 15 min. The procedure: In brief, the incubation mixture consisted of 0.25 mg/mL cytosol protein, 5 mM MgCl2, 100 μmol/L inhibitor, and 2 mM NADPH in 0.05 M Tris-HCl buffer (pH 7.4). The inhibitors were dicoumarol (quinone oxidoreductase 1), quercetin (quinone oxidoreductase 2, carbonyl reductase), menadione (aldehyde oxidase, carbonyl reductase), and 7-hydroxycoumarin (xanthine oxidase). The reaction was preincubated at 37°C for 5 min. […] The incubation mixtures without the inhibitor or cytosol protein acted as the blank control. The reaction was stopped by adding 200 μL ice-cold acetonitrile after 15 min, and the mixture was vortexed and centrifuged at 12,000 g for 15 min. […] Phenomenex Co. USA). The mobile phase consisted of a 30/70 (v/v) mixture of solvent A (0.2% aqueous acetic acid solution) and solvent B (acetonitrile). The injection dose was 10 μl and the flow rate was 1 mL/min. The column temperature was set to 35°C and the detection wavelength was set to 285 nm. The DHCHE standard curve varied linearly in the concentration range from 0.050 to 10 μg/mL. […] The lower limit of quantification was 0.050 μg/mL.

Data set [2] can be described thus: in vivo. Here is the method:
Tissue distribution was carried out in eighteen SD rats (160–180 g, nine males and nine females). Twelve rats (six male and six female) were intragastrically administered with M. cordata extracts at a single dosage of 5 mg/kg (containing about 2 mg/kg dose of sanguinarine and 1 mg/kg dose of chelerythrine) in water with the dissolving aid of Tween-80 for 3 weeks. Three male and three female rats were given the same amount of water as the blank control group by intragastric administration.
(§1) The preparations of plasma, urine, feces, and tissues were pretreatments according to our current study ([19]).
The controls of the operating parameters were as follows: capillary voltage, 3,500 V; EM voltage, 200 V; dry gas (N2) flow rate, 12 L/min; ion source temperature, 350°C; nebulizer, 25 psi.
The proposed method was validated by evaluation of specificity, accuracy, precision, LOD, and LOQ.

Data set [3] concerns the target T1, NAD(P)H quinone oxidoreductase (NQO1) (Rattus norvegicus, UniProt P05982).
T1 construct: 50 μg/mL rat liver cytosol; from tissue; host or cells: rat liver cytosol
T1 sequence (P05982 2-274 limits assumed): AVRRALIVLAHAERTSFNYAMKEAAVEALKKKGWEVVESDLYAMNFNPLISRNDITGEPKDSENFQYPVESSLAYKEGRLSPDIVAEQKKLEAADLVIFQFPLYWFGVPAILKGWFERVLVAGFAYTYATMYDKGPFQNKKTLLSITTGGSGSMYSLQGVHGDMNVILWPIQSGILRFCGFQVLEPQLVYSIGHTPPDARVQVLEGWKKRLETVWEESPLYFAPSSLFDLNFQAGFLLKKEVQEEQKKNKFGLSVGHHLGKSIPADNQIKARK
Nature of the data set: In vitro inhibition of rat cytosolic NQO1 activity (DCPIP reduction). Format: biochemical. To be noted: for NQO1 activities: compound 40.00 μM, control 67.14 ± 4.82; for NQO1 activities / Effect on NQO1 activity: rat liver cytosol; for Effect on NQO1 activity: in vitro. Here is the method: Any change in absorbance was monitored at 620 nm, and NQO1 activity was calculated by using the extinction coefficient for DCPIP (ε = 21 mM^−1cm^−1) and expressed as nanomles of DCPIP reduced per minute per milligram of protein.
The inhibitory effects of sanguinarine and chelerythrine were determined by the incubation of the reaction mixture with or without substrate. […] All of the incubations and sample preparations were carried out as described for the NQO1 assay above.

The nature of data set [4]: Metabolite profile of chelerythrine in plasma, urine and feces of rats after intragastric chelerythrine (HPLC/QqTOF-MS). Here is the method: Ten SD rats (160–180 g, five males and five females) were individually placed in stainless steel metabolic cages. […] Chelerythrine in water with the dissolving aid of Tween-80 was intragastrically administered to rats at a dose of 10 mg/kg. One milliliter whole blood samples were collected from retro orbital sinus with a heparinized blood collection tube at 3 h following drug dosing. Each collected blood sample was centrifuged at 3,000 rpm at 4°C for 10 min to obtain plasma samples. […] All samples were collected from female and male rats and stored at −70°C.
as §1
(§2) The injection volume was 5 μL.
Nitrogen was used as atomization gas, and the flow rate was 9 L/min. The parameters of the mass spectrometer were as follows: nozzle voltage 1 kv, capillary voltage 4.0 kv, sheath gas temperature 350°C, sheath gas flow rate 11 L/min, nebulizer voltage 35 psig. The quarantine window was set at 1 amu. The instrument automatically performed the internal mass calibration though the automated calibrate transfer system. […] All the data acquisition was controlled by Agilent Mass Hunter software (version B.01.03 Build 1.3.157.0 2), and the Agilent Mass Hunter software (Qualitative Analysis B.04.0) was used to accurately take mass measurements of each peak from the total ion chromatograms. Then, these metabolites were subjected to accurate EIC, and the acceptance or rejection was decided according to the peak appearing in the EIC. Structural elucidations of chelerythrine metabolites were carried out on the basis of the mass change from the metabolite or parent drug, the predicted elemental compositions, and the interpretation of accurate MS/MS spectra.

Details of data set [5]: method as in none printed. To be noted: no species, dose or reference given; cited from earlier work.
Data set [6] in a line: Chelerythrine/sanguinarine and metabolites in rat tissues after 3 weeks of intragastric M. cordata extracts (HPLC/QqTOF-MS). It counts as in vivo. The procedure: Tissue samples including cecal contents, lung, heart, liver, kidney, and spleen were collected at 24 and 48 h after the last administration and stored at −70°C.
as §2
The quarantine window was set at 1 amu.

Data set [7] in a line: Metabolite profile of sanguinarine in plasma, urine and feces of rats after intragastric M. cordata extracts. It counts as in vivo, rat.

For `O=c1ccc2ccc(O)cc2o1` [7-hydroxycoumarin], the “Effect on iminium bond reduction of chelerythrine (DHCHE formation) in rat liver cytosol” value (from here on “Effect on iminium bond reduction”) in data set [1] was “could inhibit”.

The term Cmax denotes the highest concentration seen after dosing. As a reminder, the Tmax is the time from dosing to the highest level. Take `COc1ccc2c(c[n+](C)c3c4cc5c(cc4ccc23)OCO5)c1OC` [Chelerythrine]: the “Concentrations in (others) tissues” value in data set [2] (both, SD, rat, in vivo) is reported as less than 15 ng/g. Moreover, the concentration at 24 h in data set [2] (both, SD, rat, in vivo, Concentration in spleen) was 44 ng/mL. In data set [2] (both, SD, rat, in vivo, Concentration in the liver), this molecule registered a concentration at 48 h of 20.6 ng/mL. Moreover, in data set [3], the NQO1 activities is on record as 64.90 ± 4.24 nanomolars of 2,6-dichlorophenolindophenol reduced per minute per milligram of protein and the “Effect on NQO1 activity” value is given as “weak impact”. The “Detection in plasma” value in data set [4] (male and female rats, three hours after intragastric chelerythrine) was “no parent drug and metabolites were detected”. Also, in data set [5], the Cmax is 5.06 ng/mL, the T1/2 is given as 2.82 h and the time of peak concentration (Tmax) is listed as 1.67 h. Further, the “Found in spleen, lung, kidney, liver or heart by HPLC/QqTOF-MS” value in data set [6] was “no sanguinarine and chelerythrine or their metabolites were found”.

On to `COc1ccc2c(c1OC)CN(C)c1c-2ccc2cc3c(cc12)OCO3` [DHCHE, dihydrochelerythrine], for which, in data set [4] (rat, in vivo), the “Found in feces” value is “found” and the “Observed in feces” value was “observed”.

For `O=c1oc2ccccc2c(O)c1Cc1c(O)c2ccccc2oc1=O` [Dicoumarol, dicoumarol], the “Effect on iminium bond reduction” value in data set [1] was “could inhibit”.

With `CN1Cc2c(ccc3c2OCO3)-c2ccc3cc4c(cc3c21)OCO4` [Metabolite S1, dihydrosanguinarine], the “Observed in rats in vivo (feces 0–24 h)” value in data set [7] (5 mg/kg M. cordata extracts intragastric) is given as “observed”.

The term IC50 denotes the concentration that gives 50% inhibition. Lower therefore signals inhibition by little substance. As to `C[n+]1cc2c3c(ccc2c2ccc4cc5c(cc4c21)OCO5)OCO3` [Sanguinarine], the concentration at 24 h in data set [2] (both, SD, rat, in vivo, 5 mg/kg, Residue in heart, 24 h after last dose, M. cordata extracts 5 mg/kg intragastric for 3 weeks) is 2.91 ng/g; in data set [2] (both, SD, rat, in vivo, 5 mg/kg, Residue in kidney, 24 h after last dose, M. cordata extracts 5 mg/kg intragastric for 3 weeks), 3.77 ng/g; in data set [2] (both, SD, rat, in vivo, 5 mg/kg, Residue in liver, 24 h after last dose, M. cordata extracts 5 mg/kg intragastric for 3 weeks), 10.4 ng/g; in data set [2] (both, SD, rat, in vivo, 5 mg/kg, Residue in lung, 24 h after last dose, M. cordata extracts 5 mg/kg intragastric for 3 weeks), 2.29 ng/g; in data set [2] (both, SD, rat, in vivo, 5 mg/kg, Residue in spleen, 24 h after last dose, M. cordata extracts 5 mg/kg intragastric for 3 weeks) it was 2.01 ng/g. Moreover, the concentration at 48 h in data set [2] (both, SD, rat, in vivo, 5 mg/kg, Residue in heart, 48 h after last dose, M. cordata extracts 5 mg/kg intragastric for 3 weeks) was found to be 2.57 ng/g; in data set [2] (both, SD, rat, in vivo, 5 mg/kg, Residue in kidney, 48 h after last dose, M. cordata extracts 5 mg/kg intragastric for 3 weeks), 5.65 ng/g; in data set [2] (both, SD, rat, in vivo, 5 mg/kg, Residue in liver, 48 h after last dose, M. cordata extracts 5 mg/kg intragastric for 3 weeks) it was 9.8 ng/g; in data set [2] (both, SD, rat, in vivo, 5 mg/kg, Residue in lung, 48 h after last dose, M. cordata extracts 5 mg/kg intragastric for 3 weeks), 2.01 ng/g; in data set [2] (both, SD, rat, in vivo, 5 mg/kg, Residue in spleen, 48 h after last dose, M. cordata extracts 5 mg/kg intragastric for 3 weeks), 1.91 ng/g. Moreover, the “Concentrations in other tissues” value in data set [2] (tissues other than chelerythrine in liver 48 h and spleen 24 h) was less than 11 ng/g. In addition, the “Observed in plasma at 3 h and urine of 0–24 h” value in data set [7] (rats, after intragastric M. cordata extracts) is given as “No parent drug or metabolites were observed”. In addition, the NQO1 activities in data set [3] was 45.08 ± 4.34 nanomolars of 2,6-dichlorophenolindophenol reduced per minute per milligram of protein. In data set [3] (rat liver cytosol 50 μg/mL, 40 μM DCPIP, 0.2 mM NADH, 0–40 μM compound), this molecule showed an IC50 of 112 ± 6.17 µM. Besides, in data set [3], the “Effect on NQO1 activity” value is on record as “statistically significant decline”. For the same molecule, the “Found in spleen, lung, kidney, liver or heart by HPLC/QqTOF-MS” value in data set [6] was “no sanguinarine and chelerythrine or their metabolites were found”.

`CC1=CC(=O)c2ccccc2C1=O` [menadione]: the “Effect on iminium bond reduction” value in data set [1] is recorded as “could inhibit”.

As to `O=c1c(O)c(-c2ccc(O)c(O)c2)oc2cc(O)cc(O)c12` [quercetin], the “Effect on iminium bond reduction” value in data set [1] is “could inhibit”.
